In patent publication US20250339494A1, “COMPOUNDS INDUCING PRODUCTION OF PROTEINS BY IMMUNE CELLS” (UNIVERSITE PARIS CITE, priority 2022, published 2025):

Tested on: Human B cells
Assay: IL-10 induction in human B cells cultivated 2 days with anti-IgM plus CpG; IL-10 measured in cell culture supernatants
Type: cell-based
Settings: 2 consecutive days, molecule at 0.25 μM final concentration, culture supernatant
Protocol: Human B cells isolated magnetically through negative selection (B Cell Isolation Kit II, human, Miltenyi ref: 130-091-151) were cultivated for 2 consecutive days in the presence of anti-IgM plus CpG in the presence of the indicated molecule (see table 3) at 0.25 μM final concentration. IL-10 was measured in cell culture supernatants.
Human B cells isolated magnetically through negative selection (B Cell Isolation Kit II, human, Miltenyi ref: 130-091-151) were cultivated for 2 consecutive days in the presence of anti-IgM plus CpG in the presence of DMSO (as control) or in the presence of the indicated molecule (as identified in the attached excel file) at 0.25 microM final concentration. IL-10 was measured in cell culture supernatants. NS: non stimulated B cell culture condition.

“2-methoxy-N-(1-methyl-2-(pyridin-3-yl)-1H-imidazo[4,5-b]pyridin-5-yl)benzamide + 2-methoxy-N-(3-methyl-2-(pyridin-3-yl)-3H-imidazo[4,5-b]pyridin-5-yl)benzamide [Compound 131]” was tested, and the “IL-10 Induction Mean (pg/mL) human” value was 1.85 pg/mL.
